From PubChem BioAssay AID1208 (EPA DSSTox, 2008)
The source made the active and inactive calls.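 Rule for the calls: active = at least one rat sex group has a carcinogenic potency value and tumor site recorded; inconclusive = only rat studies were judged inadequate by the national testing program; inactive = no potency or tumor site, with negative rat experiments.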

Test system: rat chronic carcinogenicity bioassay, TD50
Test: DSSTox (CPDBAS) Carcinogenic Potency Database Summary Rat Bioassay Results
Details: for Potency: stronger effect = lower value
Outline: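 The activity score maps log10(1/TD50_Rat_mmol) linearly onto 1–100; actives without a computed TD50, such as mixtures, receive 50. Source data are chronic rat carcinogenicity tests, using the most positive experiment for each sex.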

[1] = TD50_Rat_Note: no positive results, TargetSites_Rat_Female: no positive results
[2] = TD50_Rat_Note: no positive results
[3] = TargetSites_Rat_Female: no positive results
[4] = TD50_Rat_Note: TD50 is harmonic mean of more than one positive test, TargetSites_Rat_Female: liver

CC(=O)CN(CC(C)=O)N=O
Potency (TD50_Rat_Note: TD50 is harmonic mean of more than one positive test, TargetSites_Rat_Female: liver, lung, vascular system): 0.491 mg/kg/day

CCc1nc(N)nc(N)c1-c1ccc(Cl)cc1
outcome [1]: inactive; no positive results

ClC1(Cl)C2(Cl)C3(Cl)C4(Cl)C(Cl)(Cl)C5(Cl)C3(Cl)C1(Cl)C5(Cl)C24Cl (stereo unspecified)
Potency (TD50_Rat_Note: TD50 is harmonic mean of more than one positive test, TargetSites_Rat_Female: hematopoietic system, liver): 1.77 mg/kg/day

O=[N+]([O-])c1ccc2ncccc2c1
outcome [1]: inactive; no positive results

Oc1ccccc1
outcome [1]: inactive; no positive results

Cc1cnc2ccc3c(nc(N)n3C)c2n1
Potency (TD50_Rat_Note: TD50 is harmonic mean of more than one positive test, TargetSites_Rat_Female: clitoral gland, ear Zymbals gland, liver): 1.66 mg/kg/day

CC(=O)OC[C@H]1O[C@H](O[C@]2(COC(C)=O)O[C@H](COC(=O)C(C)C)[C@@H](OC(=O)C(C)C)[C@@H]2OC(=O)C(C)C)[C@H](OC(=O)C(C)C)[C@@H](OC(=O)C(C)C)[C@@H]1OC(=O)C(C)C
outcome [1]: inactive; no positive results

C=C(Cl)Cl
outcome [1]: inactive; no positive results

CCCCN(N=O)C(=N)N[N+](=O)[O-]
outcome [2]: inactive; no positive results

COP(=S)(OC)Oc1ccc([N+](=O)[O-])cc1
outcome [1]: inactive; no positive results

CCCC(CCC)C(=O)O
Potency (TargetSites_Rat_Female: uterus): 1300 mg/kg/day

S=C=NCCCCCCc1ccccc1
outcome [2]: inactive; no positive results

COC(=O)C(C)(C)Oc1ccc(-c2ccc(Cl)cc2)cc1
Potency (TD50_Rat_Note: TD50 is harmonic mean of more than one positive test, harmonic mean of TD50 includes a value for upper 99% confidence li, TargetSites_Rat_Female: liver): 4.78 mg/kg/day

O=S(=O)(O)c1c(N=Nc2c(O)ccc3ccccc23)ccc2ccccc12
outcome [1]: inactive; no positive results

CCN(CC(F)(F)F)N=O
Potency: 2.52 mg/kg/day

CC(O)CO (stereo unspecified)
outcome [1]: inactive; no positive results

Cc1cc(Cl)ccc1N
outcome [1]: inactive; no positive results

CC(CN1CC(=O)NC(=O)C1)N1CC(=O)NC(=O)C1 (stereo unspecified)
Potency (TD50_Rat_Note: positive test results only by intraperitoneal or intravenous injection, TargetSites_Rat_Female: uterus): 10.7 mg/kg/day

CN(C)[C@@H]1C(=O)C(C(N)=O)=C(O)[C@@]2(O)C(=O)C3=C(O)c4c(O)cccc4[C@@](C)(O)[C@H]3C[C@@H]12
outcome [1]: inactive; no positive results

C=CCl
Potency (TD50_Rat_Note: TD50 is harmonic mean of more than one positive test, greater than ten-fold variation among TD50 values for positive res, TargetSites_Rat_Female: ear Zymbals gland, kidney, liver, mammary gland, nasal cavity, nervous system, vascular system): 6.11 mg/kg/day

CCC(=O)C(CC(C)N(C)C)(c1ccccc1)c1ccccc1 (stereo unspecified)
outcome [1]: inactive; no positive results

CCC1CO1 (stereo unspecified)
Potency [3]: 220 mg/kg/day

O=C(O)c1cc(N=Nc2ccc(S(=O)(=O)Nc3ccccn3)cc2)ccc1O
Potency (TD50_Rat_Note: TD50 is harmonic mean of more than one positive test, TargetSites_Rat_Female: kidney, urinary bladder): 1590 mg/kg/day

CC(=O)C(N=Nc1ccc(-c2ccc(N=NC(C(C)=O)C(=O)Nc3ccccc3)c(Cl)c2)cc1Cl)C(=O)Nc1ccccc1 (stereo unspecified)
outcome [1]: inactive; no positive results

CN(C#N)N=O
Potency (TargetSites_Rat_Female: stomach): 0.48 mg/kg/day

Nc1ccc(N(CCO)CCO)cc1
outcome [1]: inactive; no positive results

NC(=O)c1ccccc1C(N)=O
outcome [1]: inactive; no positive results

C=CCOC(=O)CC(C)C
Potency [3]: 123 mg/kg/day

Cc1ccc(C)c(OCCCC(C)(C)C(=O)O)c1
Potency [1]: 247 mg/kg/day

O=[N+]([O-])c1ccc2c3c(cccc13)CC2
Potency (TD50_Rat_Note: TD50 is harmonic mean of more than one positive test, TargetSites_Rat_Female: clitoral gland, ear Zymbals gland, lung, mammary gland): 8.67 mg/kg/day

COc1cc(-c2ccc(N=C=O)c(OC)c2)ccc1N=C=O
Potency (TD50_Rat_Note: TD50 is harmonic mean of more than one positive test, TargetSites_Rat_Female: hematopoietic system, uterus): 1630 mg/kg/day

NCCCCCC(=O)O
outcome [2]: inactive; no positive results

NC(=S)NNC=O
outcome [1]: inactive

CCOc1nc2cccc(C(=O)OC(C)OC(=O)OC3CCCCC3)c2n1Cc1ccc(-c2ccccc2-c2nn[nH]n2)cc1 (stereo unspecified)
outcome [1]: inactive; no positive results

CC(=O)Nc1ccc2c(c1)C(=O)c1ccccc1-2
Potency (TargetSites_Rat_Female: ear Zymbals gland, liver, mammary gland): 6.17 mg/kg/day

CCN(CC)c1cc2oc3cc(=[N+](CC)CC)c(C)cc-3c(-c3ccc(S(=O)(=O)O)cc3S(=O)(=O)[O-])c2cc1C
outcome [1]: inactive; no positive results

C=O
Potency (TD50_Rat_Note: TD50 is harmonic mean of more than one positive test, greater than ten-fold variation among TD50 values for positive res, TargetSites_Rat_Female: hematopoietic system, nasal cavity): 1.35 mg/kg/day

Brc1c(Br)c(Br)c(Oc2c(Br)c(Br)c(Br)c(Br)c2Br)c(Br)c1Br
Potency [4]: 3340 mg/kg/day
outcome [1]: inactive; no positive results

CN(C)[C@@H]1C(=O)C(C(N)=O)=C(O)[C@@]2(O)C(=O)C3=C(O)c4c(O)cccc4[C@@](C)(O)[C@H]3[C@H](O)[C@@H]12
outcome [1]: inactive; no positive results

C/C=C1/C[C@@H](C)[C@@](C)(O)C(=O)OC/C2=C/CN(C)CC[C@@H](OC1=O)C2=O
Potency (TD50_Rat_Note: positive test results only by intraperitoneal or intravenous injection): 1.7 mg/kg/day

Cc1cc(C)c(N=Nc2c(O)c(S(=O)(=O)O)cc3cc(S(=O)(=O)O)ccc23)cc1C
Potency (TD50_Rat_Note: TD50 is harmonic mean of more than one positive test, greater than ten-fold variation among TD50 values for positive res, TargetSites_Rat_Female: liver): 521 mg/kg/day

CCCCC(CC)COC(=O)c1ccccc1C(=O)OCC(CC)CCCC (stereo unspecified)
Potency [4]: 716 mg/kg/day

CS(=O)(=O)OCCCCOS(C)(=O)=O
outcome [2]: inactive; no positive results

ClC1=C(Cl)C2(Cl)C3C(Cl)C=CC3C1(Cl)C2(Cl)Cl (stereo unspecified)
outcome [1]: inactive; no positive results

O=C(O)CCCC/C=C(\c1ccccc1)c1cccnc1
outcome [1]: inactive; no positive results

CCCCC(CC)COC(=O)CCCCC(=O)OCC(CC)CCCC (stereo unspecified)
outcome [1]: inactive; no positive results

CCN(Cc1cccc(S(=O)(=O)O)c1)c1ccc(C(=C2C=CC(=[N+](CC)Cc3cccc(S(=O)(=O)[O-])c3)C=C2)c2ccccc2)cc1
Potency (TD50_Rat_Note: TD50 is harmonic mean of more than one positive test, TargetSites_Rat_Female: liver, TargetSites_Rat_BothSexes: hematopoietic system): 6060 mg/kg/day

Cc1ccccc1N
Potency (TD50_Rat_Note: TD50 is harmonic mean of more than one positive test, TargetSites_Rat_Female: bone, mammary gland, urinary bladder, vascular system): 43.6 mg/kg/day

COC(=O)C1=CCCN(N=O)C1
outcome [2]: inactive; no positive results

c1ccc2occc2c1
Potency (TargetSites_Rat_Female: kidney): 424 mg/kg/day

NC(=O)OCC(COC(N)=O)c1ccccc1
Potency [4]: 1090 mg/kg/day

CCN(Cc1cccc(S(=O)(=O)O)c1)c1ccc(C(=C2C=CC(=[N+](CC)Cc3cccc(S(=O)(=O)[O-])c3)C=C2)c2ccc(S(=O)(=O)O)cc2)cc1
Potency (TargetSites_Rat_BothSexes: hematopoietic system): 5640 mg/kg/day

Clc1ccc(Cl)cc1
Potency [3]: 644 mg/kg/day

CCCCCCCCCCCC[N+](C)(C)[O-]
outcome [1]: inactive; no positive results

O=S(=O)(c1ccc(Cl)cc1)c1ccc(Cl)cc1
outcome [1]: inactive; no positive results

CC(C)CN(N=O)C(N)=O
Potency (TargetSites_Rat_Female: small intestine): 4.73 mg/kg/day

O=C1CC(=O)NC(=O)N1
outcome [2]: inactive; no positive results

COc1cccc2c1cc([N+](=O)[O-])c1c(C(=O)O)cc3c(c12)OCO3
Potency (TD50_Rat_Note: TD50 is harmonic mean of more than one positive test, TD50_Rat_mmol was not calculated for this mixture, but Activiity S, TargetSites_Rat_Female: stomach): 0.0141 mg/kg/day

C[C@H]1CCCC(=O)CCC/C=C/c2cc(O)cc(O)c2C(=O)O1
outcome [1]: inactive; no positive results

S=C=NCc1ccccc1
outcome [2]: inactive; no positive results

CCCC[C@H](C)[C@@H](OC(=O)C[C@H](CC(=O)O)C(=O)O)[C@@H](C[C@H](C)C[C@@H](O)CCCC[C@@H](O)C[C@H](O)[C@H](C)N)OC(=O)C[C@H](CC(=O)O)C(=O)O
Potency (TD50_Rat_Note: TD50 is harmonic mean of more than one positive test, TargetSites_Rat_Female: no positive results): 1.5 mg/kg/day

C=C1C(CCl)(CCl)C2(Cl)C(Cl)C(Cl)C1(Cl)C2(Cl)Cl (stereo unspecified)
outcome [1]: inactive; no positive results

O=S1(=O)CCCO1
Potency (TD50_Rat_Note: TD50 is harmonic mean of more than one positive test, TargetSites_Rat_Female: hematopoietic system, mammary gland, nervous system, small intestine): 3.84 mg/kg/day

CCCCOCCOCCOCc1cc2c(cc1CCC)OCO2
Potency [4]: 633 mg/kg/day

Nc1ccc(Cl)cc1N
Potency (TD50_Rat_Note: TD50 is harmonic mean of more than one positive test, TargetSites_Rat_Female: stomach, urinary bladder): 214 mg/kg/day

CC(C)C=O
outcome [1]: inactive; no positive results

[O]=[Cr][O][Cr]=[O]
outcome (TD50_Rat_Note: no positive results, TargetSites_Rat_BothSexes: no positive results): inactive

CC1=C(C(=O)OC(C)C)C(c2cccc([N+](=O)[O-])c2)C(C(=O)OC2CN(C(c3ccccc3)c3ccccc3)C2)=C(N)N1 (stereo unspecified)
outcome [1]: inactive; no positive results

Nc1ccc2c(c1)C(=O)c1ccccc1C2=O
Potency [3]: 101 mg/kg/day

C=CC(=O)O
outcome [1]: inactive; no positive results

Cc1nc(N)cc2[nH]c3ccccc3c12
Potency (TD50_Rat_Note: TD50 is harmonic mean of more than one positive test, TargetSites_Rat_Female: clitoral gland, hematopoietic system, liver, mammary gland, small intestine, vascular system): 6.66 mg/kg/day

O=C1CCC(=O)O1
outcome [1]: inactive; no positive results

ClC(Cl)(Cl)C(Cl)(Cl)Cl
Potency [3]: 55.4 mg/kg/day

CC(C)C[C@H]1C(=O)N2CCC[C@H]2[C@]2(O)O[C@](NC(=O)[C@@H]3C=C4c5cccc6[nH]c(Br)c(c56)C[C@H]4N(C)C3)(C(C)C)C(=O)N12
Potency (TargetSites_Rat_Female: uterus): 33.7 mg/kg/day

O=CCCCC=O
outcome [1]: inactive; no positive results

O=[N+]([O-])c1ccc(Nc2ccc(Nc3ccccc3)c(S(=O)(=O)O)c2)c([N+](=O)[O-])c1
Potency (TargetSites_Rat_Female: kidney): 1710 mg/kg/day

NC(=O)Cc1c([O-])on[n+]1Cc1ccccc1
Potency: 4.24 mg/kg/day

CN(N=O)c1ccc(/C=C/c2ccnc3ccccc23)cc1
Potency [4]: 0.699 mg/kg/day

CCN(CC)C(=O)c1cccc(C)c1
outcome [1]: inactive; no positive results

CN1C(C(=O)Nc2ccccn2)=C(O)c2ccccc2S1(=O)=O
outcome [2]: inactive; no positive results
